One may read the Kd as the equilibrium constant for the complex coming apart.

We go through three molecules from publication PMC3226889 (Biochemistry, 2011).

One series addresses APE1^ΔN38 (Homo sapiens, UniProt P27695). The series can be described thus: NMR chemical shift perturbation titration. The series is classed as binding.
The next series deals with APE1 redox activity. Conditions: cell-based studies; ref [15], [17], [21], [23], [48]; cited from earlier work.
The next series deals with p50 (NF-kB subunit) (human, UniProt P19838 42-367). The series is described as follows: EMSA. For orientation: In EMSA bound probe runs differently from free probe, usually more slowly.
Sequence of p50 (NF-kB subunit) (P19838 42-367): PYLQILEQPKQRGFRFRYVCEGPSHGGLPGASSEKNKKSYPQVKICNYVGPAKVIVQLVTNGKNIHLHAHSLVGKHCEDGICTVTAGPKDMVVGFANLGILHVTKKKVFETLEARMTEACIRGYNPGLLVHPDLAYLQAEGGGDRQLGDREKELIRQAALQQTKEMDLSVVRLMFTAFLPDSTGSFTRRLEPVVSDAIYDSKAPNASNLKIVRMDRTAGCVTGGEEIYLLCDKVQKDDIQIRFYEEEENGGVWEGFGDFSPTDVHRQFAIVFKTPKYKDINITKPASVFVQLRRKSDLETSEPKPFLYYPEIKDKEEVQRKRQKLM

Sequence of APE1^ΔN38 (P27695 39-318): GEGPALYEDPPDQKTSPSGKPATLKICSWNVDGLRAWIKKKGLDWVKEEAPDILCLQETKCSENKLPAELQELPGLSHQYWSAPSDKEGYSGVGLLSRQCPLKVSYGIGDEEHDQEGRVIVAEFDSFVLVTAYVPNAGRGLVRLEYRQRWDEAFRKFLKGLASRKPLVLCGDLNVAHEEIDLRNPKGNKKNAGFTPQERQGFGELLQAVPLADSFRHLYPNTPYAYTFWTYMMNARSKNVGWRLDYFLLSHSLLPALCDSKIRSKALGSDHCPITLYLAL

With `C/C(=C\C1=C(Cl)C(=O)c2ccccc2C1=O)C(=O)O` [RN7-60, (E)-3-(3-chloro-1,4-naphthoquinon-2-yl)-2-methylpropenoic acid], the Kd on APE1^ΔN38 worked out at 264 ± 72 µM. In addition, at APE1^ΔN38 (NMR conditions including 0.5 mM DTT), the “covalent modification of Cys residues” value is “no evidence for covalent modification of any Cys residue”. The “fold tighter affinity of RN7-60 than E3330” value on APE1^ΔN38 (similar conditions) is given as “about 2 fold”.
For the molecule `CCCCCCCCC/C(=C\C1=C(C)C(=O)C(OC)=C(OC)C1=O)C(=O)O` [E3330, (E)-3-[2-(5,6-dimethoxy-3-methyl-1,4-benzoquinonyl)]-2-nonylpropenoic acid], in the series on APE1 redox activity, the “E3330 concentrations at which observed effects occur” value is 5 to 50 µM.

B1: p50 DNA (dsDNA)
DNA 1: AAGGGACTTTCCGCTGGGGATTCCAT
DNA 2: ATGGAATCCCCAGCGGAAAGTCCCTT
modifications: 3'-terminal T of strand 1 is fluorescein-dT (printed as Y)
Turning to B1, the binding result in the series with p50 (NF-kB subunit) is recorded as “binds”.
